Earlier results, collected in patent publication US20050147629A1, “Pharmaceutical formulation comprising non-peptide renin inhibitor and surfactant” (priority 2002, published 2005).

Details: readily soluble = at least 1 g per 100 ml, poorly soluble = less than 1 g per 100 ml (b7)

- solubility in water: very readily soluble in water
SMILES: COCCCOc1cc(C[C@@H](C[C@H](N)[C@@H](O)C[C@H](C(=O)NCC(C)(C)C(N)=O)C(C)C)C(C)C)ccc1OC [formula Ia]
